Measurements published in patent US7544497B2, “Compositions for manipulating the lifespan and stress response of cells and organisms” (President and Fellows of Harvard College, priority 2003, dated 2009).

Columns and labels:
recombinant GST-Sir2 = recombinant GST-Sir2 (Saccharomyces cerevisiae, UniProt P06700); experiment: Sir2 deacetylation assay; assay type: biochemical, S. cerevisiae; settings: in vitro dose-response
Method: To investigate whether these compounds could stimulate sirtuins in vivo, we utilized S. cerevisiae, an organism in which the upstream regulators and downstream targets of Sir2 are relatively well understood.
His6-tagged recombinant SIRT1 and GST-tagged recombinant Sir2 were prepared as previously described^26. From 0.1 to 1 μg of SIRT1 and 1.5 μg of Sir2 were used per deacetylation assay (in 50 μl total reaction) as previously described^26. SIRT1 assays and certain of those for Sir2 employed the p53-382 acetylated substrate (‘Fluor de Lys-SIRT1’, BIOMOL) rather than FdL.
Themed compound libraries (BIOMOL) were used for primary and secondary screening. […] For water soluble compounds and negative controls, 1% v/v DMSO was added to the assay. […] HeLa cells were grown and the cellular deacetylation assays were performed and read, as above, but in full-volume 96-well microplates (Corning Costar 3595). […] Calculation of net fluorescence increases included subtraction of a blank value, which in the case of Sir2 was obtained by omitting the enzyme from the reaction and in the case of SIRT1 by adding an inhibitor (200 μM suramin or 1 mM nicotinamide) to the reaction prior to the acetylated substrate. […]

rDNA recombination = experiment: Ribosomal DNA recombination frequency (loss of ADE2 marker); assay type: cell-based, S. cerevisiae; settings: SIR2-dependent
Human 293 cells = experiment: Survival of 293 cells (Coulter counter); assay type: cell-based; settings: 50 micromolar
Method: Human 293 were grown to exponential phase under standard conditions and subjected to a dose of compound (50 micromolar) for 96 hours. The number of live cells each time point was counted using a Coulter counter.

SIRT1 deacetylase = biological target: T1, SIRT1 deacetylase (Homo sapiens, UniProt Q96EB6); experiment: High-throughput SIRT1 screening protocol (384 well); assay type: biochemical; settings: 200 μM NAD+, 5 μM Fluor de Lys-SIRT1 substrate; roughly 50 μM
T1 construct: purchased BIOMOL
T1 sequence (Q96EB6 1-747): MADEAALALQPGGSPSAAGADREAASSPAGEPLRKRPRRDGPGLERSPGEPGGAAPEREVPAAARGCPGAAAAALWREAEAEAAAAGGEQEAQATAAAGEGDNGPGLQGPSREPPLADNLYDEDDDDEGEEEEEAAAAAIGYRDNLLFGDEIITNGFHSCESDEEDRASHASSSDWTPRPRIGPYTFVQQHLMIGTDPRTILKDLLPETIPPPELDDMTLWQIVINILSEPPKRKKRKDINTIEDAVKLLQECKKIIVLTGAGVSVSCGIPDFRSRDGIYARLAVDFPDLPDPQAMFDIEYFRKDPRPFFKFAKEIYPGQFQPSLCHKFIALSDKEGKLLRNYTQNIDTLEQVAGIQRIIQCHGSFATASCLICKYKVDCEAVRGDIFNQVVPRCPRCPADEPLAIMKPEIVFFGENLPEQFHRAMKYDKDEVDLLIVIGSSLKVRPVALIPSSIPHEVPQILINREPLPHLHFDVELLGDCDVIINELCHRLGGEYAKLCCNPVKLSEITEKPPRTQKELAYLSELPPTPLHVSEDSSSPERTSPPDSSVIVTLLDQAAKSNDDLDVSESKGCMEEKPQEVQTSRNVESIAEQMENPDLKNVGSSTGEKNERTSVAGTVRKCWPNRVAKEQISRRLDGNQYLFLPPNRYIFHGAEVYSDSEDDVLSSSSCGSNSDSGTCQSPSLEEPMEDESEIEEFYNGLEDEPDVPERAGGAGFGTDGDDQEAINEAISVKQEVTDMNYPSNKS
Method: The reaction mixture contains (final): 0.5 units/reaction SIRT1 deacetylase (BIOMOL); 200 μM NAD^+; 5 μM Fluor de Lys-SIRT1 substrate (BIOMOL); buffer (25 mM Tris/Cl, pH 8.0, 137 mM NaCl, 2.7 mM KCl, 1 mM MgCl2, and 1 mg/ml BSA). In addition, a reaction mixture containing no enzyme was made so that each well receiving compound has a corresponding “no enzyme control” well. Reactions were performed in black 384 well plates (NUNC) in a final volume of 25 μl/well.
The reactions were started by combining enzyme and substrate in a reaction mixture immediately prior to aliquoting in plates (or substrate only for “no enzyme control” plates). Mixture were aliquoted to plates using Biotek μFill (Biotek Instruments). Control mixtures were manually added to designated wells. A library compound was added at a desired concentration by pin transfer to both “with enzyme” and “no enzyme” plates. Compounds were added in at least triplicate (with enzyme reaction in duplicate and no enzyme controls) at a final concentration of roughly 50 μM. The plates were incubated at 37° C. for 30-60 minutes. Then 25 μl of 1× Developer II (BIOMOL) plus 2 mM nicotinamide were added to all wells to stop the reactions. The reactions were left for at least 30 minutes at 37° C. for the signal to develop. The plates were read in a microplate-reading fluorometer capable of excitation at a wavelength in the range of 350-380 nm and detection of emitted light in the range of 440-460 nm. A read time of 0.1 sec per well was used.

S. cerevisiae = experiment: Yeast replicative lifespan by micro-manipulation; settings: for Average lifespan, growth on resveratrol: wild type untreated 21.0

recombinant GST-Sir2, sequence (P06700 whole entry): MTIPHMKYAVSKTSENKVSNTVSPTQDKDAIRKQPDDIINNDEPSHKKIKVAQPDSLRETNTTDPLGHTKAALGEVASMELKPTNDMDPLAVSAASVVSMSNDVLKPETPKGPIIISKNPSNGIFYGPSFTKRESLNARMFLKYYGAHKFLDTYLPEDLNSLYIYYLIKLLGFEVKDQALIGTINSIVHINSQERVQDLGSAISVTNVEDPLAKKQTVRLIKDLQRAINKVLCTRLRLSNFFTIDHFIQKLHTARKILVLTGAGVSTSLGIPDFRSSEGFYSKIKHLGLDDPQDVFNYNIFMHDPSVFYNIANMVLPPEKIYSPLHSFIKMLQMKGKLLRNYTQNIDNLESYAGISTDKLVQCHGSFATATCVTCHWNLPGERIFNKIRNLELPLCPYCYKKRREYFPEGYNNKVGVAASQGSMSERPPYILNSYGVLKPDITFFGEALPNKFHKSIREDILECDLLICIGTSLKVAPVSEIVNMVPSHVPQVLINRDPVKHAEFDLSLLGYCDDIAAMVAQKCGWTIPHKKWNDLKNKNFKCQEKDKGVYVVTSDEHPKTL

Oc1ccc(/C=C/c2cc(O)cc(O)c2)cc1 [Resveratrol, 3,5,4′-Trihydroxy-trans-stilbene]
concentrations at which inhibition of Sir2 was seen (recombinant GST-Sir2): greater than 100 μM
reduction of the frequency of rDNA recombination (rDNA recombination): ~60%
Survival of 293 cells (Human 293 cells; 0 h): 100%
Survival of 293 cells (Human 293 cells; 48 h): 5%
Survival of 293 cells (Human 293 cells; 96 h): 0%
activation of SIRT1 (positive controls) (SIRT1 deacetylase): 2.2 fold
Average lifespan (S. cerevisiae; 10 μM, complete 2% glucose medium, wild type untreated 22.9): 36.8 generations
Average lifespan, growth on resveratrol (S. cerevisiae; 10 μM): 35.7 generations
Average lifespan, growth on resveratrol (S. cerevisiae; 100 μM): 29.4 generations
Average lifespan, growth on resveratrol (S. cerevisiae; 500 μM): 29.3 generations
Average lifespan, glucose-restricted+resveratrol (CR+R) (S. cerevisiae; glucose restriction): 39.9 generations
Average lifespan, pnc1Δ+resveratrol (S. cerevisiae; pnc1Δ untreated 19.2): 33.1 generations
Average lifespan, sir2Δ+resveratrol (S. cerevisiae; sir2Δ untreated 9.9): 10.0 generations
Average lifespan, wild type+resveratrol (wt+R) (S. cerevisiae; wild type untreated 19.0): 37.8 generations
